From US20050048508A1, “Trehalose receptor and method for detecting trehalose with the same” (KABUSHIKI KAISHA HAYASHIBARA SEIBUTSU KAGAKU KENKYUJO, priority 2002, published 2005)
Residues, ends and D or L forms follow the SMILES beside them.

Target: T1, T1R3 with G protein α-subunits (α15 and α16/Z chimeric protein) (Mus musculus, UniProt Q925D8, I706N)
T1 construct: expressed in transfected cells; host or cells: 293 cells, RCB 1637 (human embryonic kidney)
T1 sequence (Q925D8 21-858 I706N): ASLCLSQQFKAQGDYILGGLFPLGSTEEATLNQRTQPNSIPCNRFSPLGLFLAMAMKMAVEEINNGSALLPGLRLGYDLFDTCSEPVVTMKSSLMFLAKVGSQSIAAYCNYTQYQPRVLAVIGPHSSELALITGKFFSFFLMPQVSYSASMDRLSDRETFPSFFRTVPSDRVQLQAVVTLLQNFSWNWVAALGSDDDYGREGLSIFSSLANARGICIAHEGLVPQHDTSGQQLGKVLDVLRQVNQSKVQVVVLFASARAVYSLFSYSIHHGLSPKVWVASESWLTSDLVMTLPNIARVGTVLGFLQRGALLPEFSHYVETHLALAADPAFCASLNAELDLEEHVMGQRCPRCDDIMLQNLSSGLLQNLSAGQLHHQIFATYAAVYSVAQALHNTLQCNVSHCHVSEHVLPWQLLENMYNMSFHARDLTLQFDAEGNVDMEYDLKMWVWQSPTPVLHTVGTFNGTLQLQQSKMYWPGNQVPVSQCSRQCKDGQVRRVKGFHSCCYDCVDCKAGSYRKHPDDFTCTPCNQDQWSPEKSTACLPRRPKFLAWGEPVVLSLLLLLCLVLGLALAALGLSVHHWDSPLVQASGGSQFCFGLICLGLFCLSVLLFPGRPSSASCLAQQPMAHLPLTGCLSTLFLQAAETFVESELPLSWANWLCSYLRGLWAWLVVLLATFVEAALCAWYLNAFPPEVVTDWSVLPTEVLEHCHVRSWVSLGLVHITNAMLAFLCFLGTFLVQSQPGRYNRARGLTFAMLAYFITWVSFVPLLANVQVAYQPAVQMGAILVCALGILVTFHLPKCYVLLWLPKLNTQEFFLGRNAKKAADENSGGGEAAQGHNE
Assay: Intracellular calcium ion assay, 293 cells coexpressing G protein α-subunits and T1R3 (trehalose receptor)
Assay type: cell-based
Details: Table 4: sweet taste substances on cells coexpressing G protein α-subunits and T1R3, measured similarly as in Example 4
Procedure: The coexpression vector for the G protein α-subunit α15 and the G protein α16/Z chimeric protein (hereinafter designated as “G protein α-subunits”) obtained in Example 1-3 was gene transferred to 293 cells, RCB 1637, a human embryonic kidney cell line, available from the Riken Bioresource Center, Ibaraki, Japan, by conventional lipofection. The gene transferred cells were suspended in Dulbecco's Modified Eagle's Medium (D-MEM) supplemented with 1 mg/L of “PUROMYCIN”, a trade mane of puromycin commercialized by Edge Biosystems, MD, USA, and 10% (v/v) of fetal calf serum to give a cell density of 2×10^6 cells/ml and cultured in a plastic petri dish for cell culture. After 10 to 14 days of incubation, a puromycin-resistant cell colony was collected and confirmed its production of the G protein α-subunit proteins with an index of their mRNA level by conventional RT-PCR. Thus, a cell line capable of expressing the G protein α-subunit proteins was established. To the cells were gene transferred an expression vector for the sweet taste receptor protein T1R1, T1R2, or T1R3 in Example 2-2; or a coexpression vector for a pair of T1R1 and T1R2, T1R1 and T1R3, or T1R2 and T1R3 by conventional lipofection. The resulting cells were suspended in D-MEM supplemented with 1 mg/L of “PUROMYCIN”, 500 mg/L of “GENETICIN”, and 10% (v/v) of fetal calf serum and cultured in a plastic petri dish for cell culture. After 10 to 14 days of incubation, a cell colony resistant to both of the above drugs was collected and confirmed that the transferred gene had been expressed intracellularly as expected by conventional RT-PCR at a mRNA level. Thus, a cell, which had coexpressed the desired G proteins and sweet taste receptors, was obtained. As a control, a cell, into which an expression vector with no G protein α-subunit protein gene or sweet taste receptor protein gene, was prepared and used.
The captioned reactivity test was conducted according to a conventional intracellular calcium ion assay: 293 Cells prepared in Example 3, capable of coexpressing the G protein α-subunits and the sweet taste receptor(s), were cultured in a plastic petri dish for cell culture until reaching its confluent phase. Thereafter, the cells were detached from the inner surface of the petri dish with a 0.05% (v/v) trypsin solution and a 0.53 mM EDTA solution, suspended in D-MEM supplemented with 10% (v/v) fetal calf serum to give a cell density of 1×10^6 cells/ml, and allowed to intake “FLUO-4. AM”, a reagent for detecting intracellular calcium ion commercialized by Molecular Probes Inc., Ore., USA, by adding to the cell suspension to give a final concentration of 2 μM and incubating the cells at 37 ° C. for 30 to 90 min. The resulting cells were washed with a buffer for detecting calcium ion, which contained 10 mM HEPES (pH 7.4), 130 mM sodium chloride, 5.4 mM potassium chloride, 2 mM calcium chloride, 1 mM magnesium chloride, 5.5 mM D-glucose, 0.1% (v/v) calf serum albumin, and 1 mM sodium pyruvate to remove the reagent remained extracellularly; suspended in a fresh preparation of the same buffer to give a cell density of 2.67 ×10^7 cells/ml; filtered with a membrane with a pore size of 100 μm mesh; and allowed to stand at 25° C. for 30 min. Two milliliters of the resultant cell suspension was injected into a glass cuvette, commercialized by Hitachi, Ltd., Tokyo, Japan, and analyzed on “HITACHI 650-40”, a fluorescence spectrophotometer commercialized by Hitachi, Ltd., Tokyo, Japan. […]

Influx of calcium ion, Negative:
C[C@H](N)C(=O)O [Alanine], COC(=O)[C@H](Cc1ccccc1)NC(=O)[C@@H](N)CC(=O)O [Aspartame] (HELM PEPTIDE1{D.F.[CO[*:1]]}$$$$V2.0), OC[C@@H](O)[C@@H](O)CO [Erythritol], O=C(CO)[C@@H](O)[C@H](O)[C@H](O)CO [Fructose], O=C[C@H](O)[C@@H](O)[C@@H](O)[C@H](O)CO [Galactose], NCC(=O)O [L-Glycine], OC[C@@H](O)[C@@H](O[C@H]1O[C@H](CO)[C@@H](O)[C@H](O)[C@H]1O)[C@H](O)[C@@H](O)CO [Maltitol], OC[C@H]1O[C@H](O[C@]2(CCl)O[C@H](CCl)[C@@H](O)[C@@H]2O)[C@H](O)[C@@H](O)[C@H]1Cl [Sucralose]
